Legend:
[1] = molecular target: T1, BA/F3-FLT3-ITD + D835Y cells (Homo sapiens, UniProt P36888, D835Y, cells depend on it, form not given); test: Cell proliferation assay (CellTiter-Glo), engineered BA/F3 cells; format: cell-based, murine; conditions: BaF3 FLT3 ITD/D835Y cells, 3d-Growth; read-out: BaF3_FLT3 ITD/D835Y 3d-Growth: IC50
T1 sequence (P36888 1-993 D835Y): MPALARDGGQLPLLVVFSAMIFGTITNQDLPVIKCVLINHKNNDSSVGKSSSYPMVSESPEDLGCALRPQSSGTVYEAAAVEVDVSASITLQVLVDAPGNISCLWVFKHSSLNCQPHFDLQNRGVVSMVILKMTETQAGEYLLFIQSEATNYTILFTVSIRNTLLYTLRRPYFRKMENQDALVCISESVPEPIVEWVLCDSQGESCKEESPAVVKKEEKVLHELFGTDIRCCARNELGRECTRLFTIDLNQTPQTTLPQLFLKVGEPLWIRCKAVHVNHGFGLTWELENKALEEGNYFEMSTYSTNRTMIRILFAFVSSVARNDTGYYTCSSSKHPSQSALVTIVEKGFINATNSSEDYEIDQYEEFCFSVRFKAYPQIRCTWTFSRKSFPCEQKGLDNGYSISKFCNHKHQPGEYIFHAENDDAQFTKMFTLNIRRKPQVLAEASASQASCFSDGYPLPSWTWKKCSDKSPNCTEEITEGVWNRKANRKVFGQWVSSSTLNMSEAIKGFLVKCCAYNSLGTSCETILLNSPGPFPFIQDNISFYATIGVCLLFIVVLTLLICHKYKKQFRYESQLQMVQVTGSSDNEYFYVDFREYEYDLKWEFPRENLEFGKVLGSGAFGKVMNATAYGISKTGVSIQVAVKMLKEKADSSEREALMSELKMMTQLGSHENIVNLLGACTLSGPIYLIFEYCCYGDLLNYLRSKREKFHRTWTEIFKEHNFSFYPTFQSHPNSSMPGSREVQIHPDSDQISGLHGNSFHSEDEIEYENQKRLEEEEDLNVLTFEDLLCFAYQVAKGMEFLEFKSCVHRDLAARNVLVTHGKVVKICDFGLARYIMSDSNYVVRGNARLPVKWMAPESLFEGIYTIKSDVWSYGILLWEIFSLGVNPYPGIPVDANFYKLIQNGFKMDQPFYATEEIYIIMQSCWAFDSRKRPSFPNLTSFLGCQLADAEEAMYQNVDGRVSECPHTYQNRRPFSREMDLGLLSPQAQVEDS
Description: The FLT3 inhibitors may be assessed using the MOLM-14, Acute Myeloid Leukemia cell line that endogenously expresses FLT3 ITD or derivatives of the human FLT3 AML cell line which acquired the D835Y (activation loop) of F691L (gatekeeper) mutation after selection in escalating doses of the FLT3 Inhibitor AC220. FLT3 inhibitors may also be assessed using cells that are engineered to express mutant FLT3. For engineered cells, murine Ba/F3 cells were transfected with full-length FLT3 ITD/D835Y mutations. The parental BA/F3 cells are dependent upon Interleukin-3 (IL-3) for survival, and introduction of the FLT3 constructs rendered these cells dependent upon FLT3 kinase activity when cultured in the absences of IL-3. Engineered BA/F3 cell growth assays can be performed in either the […] of IL-3, to assess the compound inhibition of FLT3 or to detect the presence of off-target activity, respectively. Inhibitors of FLT3 kinase activity reduce or eliminate the FLT3 oncogenic signaling, resulting in reduced cell proliferation. This inhibition is measured as a function of compound concentration to asses IC50 values.
Cell lines used in proliferation assays are as follows in Table 3:
Cells were seeded at 1×10^4 cells per well of a 96 well cell culture plate in 50 μl of cell culture medium. Compounds were dissolved in DMSO, typically at a concentration of 0.5 mM and were serially diluted 1:3 for a total of eight points and added to the cells to final concentrations of […], 0.0041, 0.0014 and 0.00046 μM in 100 μl cell culture medium (final concentration 0.2% DMSO). […] The cells were incubated at 37° C., 5% CO2 for three days. CellTiter-Glo Buffer (Promega Cell Viability Assay catalog #G7573) and substrate were equilibrated to room temperature, and enzyme/substrate Recombinant Firefly Luciferase/Beetle Luciferin was reconstituted. The cell plates were equilibrated to room temperature for 30 minutes, then lysed by addition of an equivalent volume of the Celltiter-Glo Reagent. The plate was mixed for 10 minutes on a plate shaker to lyse the cells. The plates were read on a Tecan M1000 using Luminescence protocol modified to read 0.1 s per well. The luminescence reading assesses the ATP content, which correlates directly with cell number such that the reading as a function of compound concentration was used to determine the IC50 value.

[2] = molecular target: T2, c-KIT (Homo sapiens, UniProt P10721); test: AlphaScreen kinase assay with recombinant enzyme, c-KIT; format: biochemical; conditions: 100ATP, 8pt, GMean
T2 construct: purchased Millipore 14-559K
T2 sequence (P10721 26-976): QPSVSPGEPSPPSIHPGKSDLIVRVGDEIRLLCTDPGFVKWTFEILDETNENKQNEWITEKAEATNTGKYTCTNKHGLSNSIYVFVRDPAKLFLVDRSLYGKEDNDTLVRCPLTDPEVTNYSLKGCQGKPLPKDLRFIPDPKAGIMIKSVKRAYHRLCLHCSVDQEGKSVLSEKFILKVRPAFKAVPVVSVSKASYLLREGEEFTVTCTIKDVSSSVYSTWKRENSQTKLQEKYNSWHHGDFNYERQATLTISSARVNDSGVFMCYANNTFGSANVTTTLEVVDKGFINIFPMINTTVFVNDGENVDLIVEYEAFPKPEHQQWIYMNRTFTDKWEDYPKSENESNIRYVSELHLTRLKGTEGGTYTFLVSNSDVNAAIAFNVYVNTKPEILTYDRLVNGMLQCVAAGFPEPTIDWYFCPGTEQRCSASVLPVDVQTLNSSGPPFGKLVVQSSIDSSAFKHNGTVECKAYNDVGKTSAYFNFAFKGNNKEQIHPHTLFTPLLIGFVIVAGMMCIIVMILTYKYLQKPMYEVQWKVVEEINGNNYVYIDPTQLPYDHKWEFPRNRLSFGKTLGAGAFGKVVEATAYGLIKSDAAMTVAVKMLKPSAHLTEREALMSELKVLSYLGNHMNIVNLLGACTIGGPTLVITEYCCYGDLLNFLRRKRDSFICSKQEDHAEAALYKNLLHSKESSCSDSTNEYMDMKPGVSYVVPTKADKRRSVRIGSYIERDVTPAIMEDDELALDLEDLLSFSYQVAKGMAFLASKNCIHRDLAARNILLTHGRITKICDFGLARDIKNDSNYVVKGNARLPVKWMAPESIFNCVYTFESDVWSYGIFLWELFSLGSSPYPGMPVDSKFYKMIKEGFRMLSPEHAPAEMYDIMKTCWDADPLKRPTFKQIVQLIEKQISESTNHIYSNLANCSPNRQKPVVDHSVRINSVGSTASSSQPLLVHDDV
How it was run: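 AlphaScreen, biotinylated poly(Glu4-Tyr) 30 nM final; PY20 anti-pTyr acceptor and streptavidin donor beads 10 μg/mL; IC50 final conc. 10 μM (FLT3-D835Y, FLT3-ITD) / 100 μM (c-KIT); detection incubations 20 + 60 min RT; 580 nm emission.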

Compound: CS(=O)(=O)N1CCC(NS(=O)(=O)c2cccc(-c3cnc4[nH]c(-c5ccccc5)cc4c3)n2)C1 (stereo not shown) [Compound P-0107, N-(1-methylsulfonylpyrrolidin-3-yl)-6-(2-phenyl-1H-pyrrolo[2,3-b]pyridin-5-yl)pyridine-2-sulfonamide]
- GI50 [1]: 0.0001 to 10 µM
- IC50 [2]: 50 to 100 µM

Compound: CC(C)(C#N)CNC(=O)c1cccc(-c2cnc3[nH]c(-c4cnn(CC(F)(F)F)c4)cc3c2)n1 [Compound P-0113, N-(2-cyano-2-methyl-propyl)-6-[2-[1-(2,2,2-trifluoroethyl)pyrazol-4-yl]-1H-pyrrolo[2,3-b]pyridin-5-yl]pyridine-2-carboxamide]
- GI50 [1]: 0.0001 to 10 µM
- IC50 [2]: 0.0001 to 10 µM

Compound: CNC(=O)C1CCN(C(=O)c2cccc(-c3cnc4[nH]c(-c5ccccc5)cc4c3)n2)C1 (stereo not shown) [Compound P-0096, N-methyl-1-[6-(2-phenyl-1H-pyrrolo[2,3-b]pyridin-5-yl)pyridine-2-carbonyl]pyrrolidine-3-carboxamide]
- GI50 [1]: 0.0001 to 10 µM
- IC50 [2]: 10 to 50 µM

Compound: N#CC1CCN(C(=O)c2cccc(-c3cnc4[nH]c(-c5ccccc5)cc4c3)n2)C1 (stereo not shown) [Compound P-0105, 1-[6-(2-phenyl-1H-pyrrolo[2,3-b]pyridin-5-yl)pyridine-2-carbonyl]pyrrolidine-3-carbonitrile]
- GI50 [1]: 0.0001 to 10 µM
- IC50 [2]: 10 to 50 µM

Compound: O=S(=O)(NC1CC1)c1cccc(-c2cnc3[nH]c(-c4ccccc4)cc3c2)n1 [Compound P-0109, N-cyclopropyl-6-(2-phenyl-1H-pyrrolo[2,3-b]pyridin-5-yl)pyridine-2-sulfonamide]
- GI50 [1]: 0.0001 to 10 µM
- IC50 [2]: 50 to 100 µM

Compound: O=C(c1cccc(-c2cnc3[nH]c(-c4cnn(CC(F)(F)F)c4)cc3c2)n1)N1CCC(F)(F)C1 [Compound P-0112, (3,3-difluoropyrrolidin-1-yl)-[6-[2-[1-(2,2,2-trifluoroethyl)pyrazol-4-yl]-1H-pyrrolo[2,3-b]pyridin-5-yl]-2-pyridyl]methanone]
- GI50 [1]: 0.0001 to 10 µM
- IC50 [2]: 10 to 50 µM

Compound: N#CC1(NC(=O)c2cccc(-c3cnc4[nH]c(-c5ccccc5)cc4c3)n2)CCC1 [Compound P-0114, N-(1-cyanocyclobutyl)-6-(2-phenyl-1H-pyrrolo[2,3-b]pyridin-5-yl)pyridine-2-carboxamide]
- GI50 [1]: 0.0001 to 10 µM
- IC50 [2]: 50 to 100 µM

Compound: COC1CCN(C(=O)c2cccc(-c3cnc4[nH]c(-c5ccccc5)cc4c3)n2)C1 (stereo not shown) [Compound P-0095, (3-methoxypyrrolidin-1-yl)-[6-(2-phenyl-1H-pyrrolo[2,3-b]pyridin-5-yl)-2-pyridyl]methanone]
- GI50 [1]: 0.0001 to 10 µM
- IC50 [2]: 10 to 50 µM

— patent US9938273B2 (Plexxikon Inc., priority 2015, dated 2018)
